Laboratory results taken from patent US20110046058A1, “COMPOSITIONS FOR ENTERAL ABSORPTION AND SUSTAINED ACTION OF LEPTIN-RELATED PEPTIDES USEFUL IN THE TREATMENT OF OBESITY AND LEPTIN-MODULATED DISEASE” (AEGIS THERAPEUTICS LLC, priority 2009, published 2011).
Like-named read-outs stand apart in the source and are kept apart here. Where a SMILES comes first, the peptide text is derived from it.

How the values were obtained:
[1] = in vivo
Description: (§1) Typically, an acceptable daily intake for humans is about 1% of the NOAEL, which translates to about 14-21 grams, or 14 million micrograms to 21 million micrograms, per day, indefinitely.

[2] = NOAEL of alkylsaccharide (FAO/WHO report); details: per day, indefinitely
Description: as §1

[3] = FAO/WHO report; cited from earlier work
[4] = mouse, in vivo, 1 mg
Protocol: (§2) Six week-old male Swiss Webster mice weighing approximately 30 gm were maintained at a constant temperature (24 C) with lights on from 07:00 to 19:00 h, and allowed food and water ad libitum until used for uptake studies. […] For sc, im, and ip delivery, the peptide was dissolved in sterile phosphate buffered saline (PBS, pH 7.2) at a concentration of 1 mg/200 μL as described previously containing 0.18% tetradecyl-beta-D-maltoside. For oral gavage [D-Leu-4]OB3 was dissolved in 0.3% dodecyl-beta-D-maltoside reconstituted in PBS (pH 7.2) at a concentration of 1 mg/200 μL. At time zero (0), a single 200 μL sc, im, ip or oral dose of mouse [D-Leu-4]OB3 was given to each of six mice per time point. Following peptide administration, the mice were transferred to separate cages for the designated time period.
(§3) Five, 10, 20, 40, 60, or 120 minutes after peptide delivery, the mice were anesthetized with isoflurane (5%) and exsanguinated by cardiac puncture. The blood was collected in sterile nonheparinized plastic centrifuge tubes and allowed to stand at room temperature for 1 h. The clotted blood was rimmed from the walls of the tubes with sterile wooden applicator sticks. Individual serum samples were prepared by centrifugation for 30 min at 2600×g in an Eppendorf™ 5702R, A-4-38 rotor (Eppendorf North America, Westbury, N.Y., USA), and stored frozen until assayed for mouse [D-Leu-4]OB3 content by competitive ELISA.
(§4) The [D-Leu-4]OB3 competitive ELISA assay was carried out as follows. 96-well polystyrene plates (Pierce Biotechnology, Inc., Rockford, Ill., USA) were coated with 100 μL of a 5 ug/ml solution of BSA-conjugated mouse [D-Leu-4]OB3 (QED Bioscience, San Diego, Calif.) in carbonate-bicarbonate buffer (pH 9.4). The coated plates were incubated overnight at 4 C. Unoccupied sites were blocked with 200 μL StartingBlock™ in PBS (Pierce Biotechnology Inc., Rockford, Ill., USA) for 2 h at room temperature. Mouse [D-Leu-4]OB3 standards ranging from 5 to 10,000 ng/ml are prepared in PBS (pH 7.2). In a separate incubation, 100 μL of mouse [D-Leu-4]OB3 primary antibody raised in New Zealand White rabbits (QED Bioscience, San Diego, Calif.) and diluted to 1:5000 in StartingBlock™, or 100 μL of the primary antibody+50 μL of each standard or serum sample are added to 500 μL microcentrifuge tubes and incubated for 1 h at 37 C. At the end of the incubation period, 100 μL of each antibody-bound standard or sample were added to the wells and incubated for 1 h at room temperature. HRP-conjugated goat-anti-rabbit IgG (Pierce Biotechnology Inc, Rockford, Ill., USA) was used as the secondary antibody. 100 μL was added to each well and incubated for 1 h at room temperature. At the end of the incubation period, 100 μL of ABTS substrate (Pierce Biotechnology Inc, Rockford, Ill., USA) was added to each well and incubated for 30 minutes on a rotary rocker. Color development was stopped with 1% SDS. Absorbance was read at 405 nm with a Molecular Devices microplate reader (MDS Sciex, Concord, Ontario Canada). Each sample was assayed in triplicate. […] The relative bioavailability was determined by plotting the serum concentrations of mouse [D-Leu-4]OB3 vs. time following ip, sc, or im delivery using the graphics program SigmaPlot™ 8.0 (SPSS Science, Chicago, Ill., USA). The area under each curve (AUC) was calculated with a function of this program.

[5] = mouse, in vivo
Protocol: (§5) Six week-old male Swiss Webster mice weighing approximately 30 g were obtained from Taconic Farms (Germantown, N.Y., USA). The animals were housed three per cage in polycarbonate cages fitted with stainless steel wire lids and air filters, and supported on ventilated racks (Thoren Caging Systems, Hazelton, Pa., USA) in the Albany Medical College Animal Resources Facility. The mice were maintained at a constant temperature (24° C.) with lights on from 07:00 to 19:00 h, and allowed food and water ad libitum until used for uptake studies.
(§6) Following peptide administration the mice were transferred to separate cages for the designated time period.
(§7) Five, 10, 20, 40, 60, or 120 min after peptide delivery, the mice were anesthetized with isoflurane (5%) and exsanguinated by cardiac puncture. The blood was collected in sterile nonheparinized plastic centrifuge tubes and allowed to stand at room temperature for 1 h. The clotted blood was rimmed from the walls of the tubes with sterile wooden applicator sticks.
(§8) The coated plates were incubated overnight at 4° C. Unoccupied sites were blocked with 200 μL StartingBlock™ in PBS (Pierce Biotechnology Inc., Rockford, Ill., USA) for 2 h at room temperature. […] At the end of the incubation period, 100 μL of each antibody-bound standard or sample was added to the wells and incubated for 1 h at room temperature. HRP-conjugated goat-anti-rabbit IgG (Pierce Biotechnology Inc. Rockford, Ill., USA) was used as the secondary antibody. 100 μL was added to each well and incubated for 1 h at room temperature.

[6] = mouse, in vivo; remark: listed apart in the source
Protocol: as §5, §6, §7, §8

[7] = mouse, in vivo; remark: listed apart in the source
Protocol: as §2, §3, §4

## sucrose dodecanoate
[1]
  amount a 70 kilogram person can consume per day without any observable adverse effect: 1400-2100 grams
[2]
  acceptable daily intake for humans (about 1% of the NOAEL): 14-21 grams
[3]
  NOAEL: 20-30 grams/kilogram/day

## CC(C)C[C@@H](NC(=O)[C@H](CO)NC(=O)[C@H](CS)NC(=O)[C@@H](N)CO)C(=O)N1CCC[C@H]1C(=O)N[C@@H](CCC(N)=O)C(=O)N[C@H](C(N)=O)[C@@H](C)O [mouse [D-Leu-4]OB3] (HELM PEPTIDE1{S.C.S.[dL].P.Q.T.[am]}$$$$V2.0; N-terminus assumed)
[4]; im
  AUC: 24700 ng·h/mL
[4]; ip
  AUC: 17900 ng·h/mL
[4]; po
  AUC: 9320 ng·h/mL
[4]; sc
  AUC: 19700 ng·h/mL
[5]; im, 1 mg
  Cmax: 46600 ng/mL
  Tmax: 5 min
[5]; im, 1 mg, AUC
  AUC: 24700 ng·h/mL
[5]; im, 1 mg, t1/2 (serum half-life)
  half-life: 48.8 min
[5]; inhaled or intranasal, 1 mg, AUC1
  AUC: 15400 ng·h/mL
[5]; inhaled or intranasal, 1 mg, AUC2
  AUC: 56900 ng·h/mL
[5]; inhaled or intranasal, t1/2 1
  half-life: 7 min
[5]; inhaled or intranasal, t1/2 1 + t1/2 2 (overall half-life)
  half-life: 41.1 min
[5]; inhaled or intranasal, t1/2 2
  half-life: 34.1 min
[5]; ip, 1 mg
  Cmax: 22500 ng/mL
  Tmax: 5 min
[5]; ip, 1 mg, AUC
  AUC: 17900 ng·h/mL
[5]; ip, 1 mg, t1/2 (serum half-life)
  half-life: 30 min
[5]; sc, 1 mg
  Cmax: 35100 ng/mL
  Tmax: 5 min
[5]; sc, 1 mg, AUC
  AUC: 19700 ng·h/mL
[5]; sc, 1 mg, t1/2 (serum half-life)
  half-life: 35 min
[6]
  CL1: 1.08 mL/min
  CL2: 0.29 mL/min
  Relative bioavailability: 4.0
  kelim1: 0.0986 min⁻¹
  kelim2: 0.0203 min⁻¹
[6]; im
  Relative bioavailability: 1.4
[6]; im, 1 mg
  AUC: 1,481,060 ng/ml/min
  CL (plasma clearance): 0.68 mL/min
  Vd (apparent volume of distribution): 29.4 mL
[6]; inhaled or intranasal
  CL1 + CL2 (overall clearance): 1.37 mL/min
  Vd1: 1.1 mL
  Vd1 + Vd2 (overall volume of distribution): 15.4 mL
  Vd2: 14.3 mL
[6]; inhaled or intranasal, 1 mg
  Cmax2: 69,069 ng/ml
  Tmax2: 60 min
  tmax1: 10 min
[6]; ip
  Relative bioavailability: 1.0
[6]; ip, 1 mg
  AUC: 1,072,270 ng/ml/min
  CL (plasma clearance): 0.93 mL/min
  Vd (apparent volume of distribution): 65.5 mL
[6]; sc
  Relative bioavailability: 1.1
[6]; sc, 1 mg
  AUC: 1,182,498 ng/ml/min
  CL (plasma clearance): 0.85 mL/min
  Vd (apparent volume of distribution): 42.9 mL
  t1/2 (serum half-life): 34.0 min
[7]
  Relative Oral Bioavailability Compared to Three Injection Modes (% of AUC achieved by each respective injection): 52.2% of IP AUC
[7]; po
  Relative Oral Bioavailability Compared to Three Injection Modes (% of AUC achieved by each respective injection): 37.8% of IM AUC
